Measurements from PubChem BioAssay AID1963960 (Molecular Pharmacology Branch, DTP, NCI, 2024).

System: MDA-MB-468 spheroids with HUVEC/MSC, viability
Assay: Anticancer human tumor MDA-MB-468 cell line growth inhibition [PI3K];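 note: spheroids exposed to agents for seven days before readout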;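 for viability, T/C: 100% = DMSO vehicle control viability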
Settings: for IC50: curve of first compound; for viability, T/C: stronger effect = lower value
From the text: Combinatorial screen of targeted agents with the PI3K inhibitors inavolisib, alpelisib, duvelisib, and copanlisib in multi-cell type tumor spheroids
A high-throughput screen of multi-cell type tumor spheroids was designed to identify active combinations of targeted small molecules and PI3K pathway inhibitors. Complex spheroids include a stromal component modeled by human endothelial cells (HUVEC) and fibroblasts modeled by human mesenchymal stem cells (MSCs). The concentration ranges selected for each drug and investigational agent were based upon clinically achievable concentrations if the clinical Cmax of the agent was known.
Compounds. The drugs and investigational agents: inavolisib (NSC800729), alpelisib (NSC765974), duvelisib (NSC772469), copanlisib (NSC816437), ipatasertib (NSC767898), afuresertib (NSC778305), talazoparib (NSC767125), sapanisertib (NSC764658), selumetinib (NSC741078), tovorafenib (DAY101, NSC766906), vemurafenib (NSC761431), ravoxertinib (NSC781343), sotorasib (NSC818433), MRTX1133 (NSC 836407), abemaciclib (NSC 768073), palbociclib (NSC758247), venetoclax (NSC 766270), SY5609 (NSC837396), enzalutamide (NSC755605), and darolutamide (NSC825331), were obtained from the National Cancer Institute (NCI) Developmental Therapeutics Program Chemical Repository. The FDA-approved anticancer drug set is available from the NCI Developmental Therapeutics Program. […] The stock solutions were prepared in dimethyl sulfoxide (DMSO, Sigma-Aldrich, St. Louis, MO, cat. D2650) at 800-fold the tested concentration and stored at -70 degrees C prior to their use. All drugs and investigational agents were tested over a range starting from a high concentration at or near the clinical Cmax and decreasing in half-log increments. If the clinical Cmax for an agent had not been determined, the highest concentration tested was 10 microM.
Cell Culture. All cells were maintained in an incubator at 37 degrees C and 5% CO2 with 95% humidity. The PDC lines were cultured according to standard operating procedures established by the NCI PDMR (https://pdmr.cancer.gov/sops/default.htm). All PDCs were thawed and cultured in Matrigel-coated flasks prepared with a working solution of 1X Ham's F-12 nutrient mix, without supplementation (Invitrogen, Waltham, MA, cat. 11765054), 100 U/mL penicillin-streptomycin (Invitrogen, cat. 15140122), and 2.5% Matrigel (Corning Inc., Corning, NY, cat. 354248) for the first three passages. The 354836-022-R-J1-PDC, 475296-252-R-J1-PDC, and 997726-040-R-J2-PDC lines were cultured in 6A media, which includes advanced DMEM/F-12 (Thermo Fisher Scientific, cat. 12634028), 10 mM HEPES (Thermo Fisher Scientific, cat. 15630080), 1X GlutaMAX supplement (Thermo Fisher Scientific, cat. 35050061), 0.1 mg/mL primocin (InvivoGen, San Diego, CA, cat. ant-pm-2), 10% defined fetal bovine serum, heat inactivated (HyClone Laboratories Inc., Logan, UT, cat. SH30070.03HI), 50% L-WRN conditioned media (ATCC, cat. CRL-3276), 1.25 mM N-Acetyl-L-cysteine (Sigma-Aldrich, cat. A9165), 10 mM nicotinamide (Sigma-Aldrich, cat. N0636), 1X B-27 supplement (Thermo Fisher Scientific, cat. 17504044), 1X N-2 supplement (Thermo Fisher Scientific, cat. 17502048), and 10 microM Y-27632 dihydrochloride (Tocris Bioscience, Bristol, United Kingdom, cat. 1254). The 624824-186-R-J2-PDC line was cultured in 6C/Colon 1B media, which includes all 6A media components plus 50 ng/mL human EGF recombinant protein (Thermo Fisher Scientific, cat. PHG0311). […]

[1] = second compound 0.00316 µM, first compound 0.0316 µM
[2] = second compound 0.00316 µM, first compound 0.1 µM
[3] = second compound 0.01 µM, first compound 0.0316 µM
[4] = second compound 0.01 µM, first compound 0.1 µM
[5] = second compound 0.0316 µM, first compound 0.0316 µM
[6] = second compound 0.0316 µM, first compound 0.1 µM
[7] = second compound 0.1 µM, first compound 0.0316 µM
[8] = second compound 0.1 µM, first compound 0.1 µM
[9] = second compound 0.316 µM, first compound 0.0316 µM
[10] = second compound 0.316 µM, first compound 0.1 µM
[11] = second compound 1 µM, first compound 0.0316 µM
[12] = second compound 1 µM, first compound 0.1 µM
[13] = second compound 0.00316 µM, first compound 0.316 µM
[14] = second compound 0.00316 µM, first compound 1 µM
[15] = second compound 0.00316 µM, first compound 3.16 µM
[16] = second compound 0.00316 µM, first compound 10 µM
[17] = second compound 0.01 µM, first compound 0.316 µM
[18] = second compound 0.01 µM, first compound 1 µM
[19] = second compound 0.01 µM, first compound 3.16 µM
[20] = second compound 0.01 µM, first compound 10 µM
[21] = second compound 0.0316 µM, first compound 0.316 µM
[22] = second compound 0.0316 µM, first compound 1 µM
[23] = second compound 0.0316 µM, first compound 3.16 µM
[24] = second compound 0.0316 µM, first compound 10 µM
[25] = second compound 0.1 µM, first compound 0.316 µM
[26] = second compound 0.1 µM, first compound 1 µM
[27] = second compound 0.1 µM, first compound 3.16 µM
[28] = second compound 0.1 µM, first compound 10 µM
[29] = second compound 0.316 µM, first compound 0.316 µM
[30] = second compound 0.316 µM, first compound 1 µM
[31] = second compound 0.316 µM, first compound 3.16 µM
[32] = second compound 0.316 µM, first compound 10 µM
[33] = second compound 1 µM, first compound 0.316 µM
[34] = second compound 1 µM, first compound 1 µM
[35] = second compound 1 µM, first compound 3.16 µM
[36] = second compound 1 µM, first compound 10 µM

SMILES: CC(C)n1nc(-c2ccc3oc(N)nc3c2)c2c(N)ncnc21 + CC(Nc1ccc2c(c1)OCCn1cc(N3C(=O)OCC3C(F)F)nc1-2)C(N)=O
- IC50 (second compound 0.00316 µM): 0.0485 µM
- IC50 (second compound 0.01 µM): 0.0418 µM
- IC50 (second compound 0.0316 µM): 0.0385 µM
- IC50 (second compound 0.1 µM): 0.0367 µM
- IC50 (second compound 0.316 µM): 0.0312 µM
- IC50 (second compound 1 µM): 0.023 µM
- viability, T/C (second compound 0.00316 µM, first compound 0.000316 µM): 89.9%
- viability, T/C (second compound 0.00316 µM, first compound 0.001 µM): 100%
- viability, T/C (second compound 0.00316 µM, first compound 0.00316 µM): 91.8%
- viability, T/C (second compound 0.00316 µM, first compound 0.01 µM): 92.6%
- viability, T/C [1]: 69.5%
- viability, T/C [2]: 16.7%
- viability, T/C (second compound 0.01 µM, first compound 0.000316 µM): 95.1%
- viability, T/C (second compound 0.01 µM, first compound 0.001 µM): 96.8%
- viability, T/C (second compound 0.01 µM, first compound 0.00316 µM): 88%
- viability, T/C (second compound 0.01 µM, first compound 0.01 µM): 99%
- viability, T/C [3]: 59.2%
- viability, T/C [4]: 21.1%
- viability, T/C (second compound 0.0316 µM, first compound 0.000316 µM): 100%
- viability, T/C (second compound 0.0316 µM, first compound 0.001 µM): 94.8%
- viability, T/C (second compound 0.0316 µM, first compound 0.00316 µM): 77.4%
- viability, T/C (second compound 0.0316 µM, first compound 0.01 µM): 83%
- viability, T/C [5]: 58.5%
- viability, T/C [6]: 15%
- viability, T/C (second compound 0.1 µM, first compound 0.000316 µM): 103%
- viability, T/C (second compound 0.1 µM, first compound 0.001 µM): 82.4%
- viability, T/C (second compound 0.1 µM, first compound 0.00316 µM): 87.8%
- viability, T/C (second compound 0.1 µM, first compound 0.01 µM): 82.3%
- viability, T/C [7]: 54.2%
- viability, T/C [8]: 11.8%
- viability, T/C (second compound 0.316 µM, first compound 0.000316 µM): 87.2%
- viability, T/C (second compound 0.316 µM, first compound 0.001 µM): 82.8%
- viability, T/C (second compound 0.316 µM, first compound 0.00316 µM): 87.6%
- viability, T/C (second compound 0.316 µM, first compound 0.01 µM): 84.9%
- viability, T/C [9]: 49.6%
- viability, T/C [10]: 12.7%
- viability, T/C (second compound 1 µM, first compound 0.000316 µM): 105%
- viability, T/C (second compound 1 µM, first compound 0.001 µM): 80.8%
- viability, T/C (second compound 1 µM, first compound 0.00316 µM): 75.2%
- viability, T/C (second compound 1 µM, first compound 0.01 µM): 70.8%
- viability, T/C [11]: 46.6%
- viability, T/C [12]: 12.3%

SMILES: CC1(C)CCC(CN2CCN(c3ccc(C(=O)NS(=O)(=O)c4ccc(NCC5CCOCC5)c([N+](=O)[O-])c4)c(Oc4cnc5[nH]ccc5c4)c3)CC2)=C(c2ccc(Cl)cc2)C1 + CC(Nc1ccc2c(c1)OCCn1cc(N3C(=O)OCC3C(F)F)nc1-2)C(N)=O
- IC50 (second compound 0.00316 µM): 4.86 µM
- IC50 (second compound 0.01 µM): 5.03 µM
- IC50 (second compound 0.0316 µM): 4.3 µM
- IC50 (second compound 0.1 µM): 4.32 µM
- IC50 (second compound 0.316 µM): 3.63 µM
- IC50 (second compound 1 µM): 3.48 µM
- viability, T/C [1]: 94.2%
- viability, T/C [2]: 99.9%
- viability, T/C [13]: 82.1%
- viability, T/C [14]: 91.6%
- viability, T/C [15]: 74.4%
- viability, T/C [16]: 8.95%
- viability, T/C [3]: 91.8%
- viability, T/C [4]: 108%
- viability, T/C [17]: 90.1%
- viability, T/C [18]: 108%
- viability, T/C [19]: 77.5%
- viability, T/C [20]: 9.38%
- viability, T/C [5]: 97.6%
- viability, T/C [6]: 89.3%
- viability, T/C [21]: 71.6%
- viability, T/C [22]: 94.6%
- viability, T/C [23]: 64.6%
- viability, T/C [24]: 9.45%
- viability, T/C [7]: 97.9%
- viability, T/C [8]: 95.7%
- viability, T/C [25]: 83.4%
- viability, T/C [26]: 83.8%
- viability, T/C [27]: 67.2%
- viability, T/C [28]: 10%
- viability, T/C [9]: 89.6%
- viability, T/C [10]: 74.7%
- viability, T/C [29]: 96%
- viability, T/C [30]: 76.5%
- viability, T/C [31]: 56.2%
- viability, T/C [32]: 8.04%
- viability, T/C [11]: 80.6%
- viability, T/C [12]: 79.8%
- viability, T/C [33]: 79.6%
- viability, T/C [34]: 90%
- viability, T/C [35]: 53.8%
- viability, T/C [36]: 9.1%

SMILES: C[C@@H](NC(=O)c1ncnc(N)c1Cl)c1ncc(C(=O)Nc2cc(C(F)(F)F)c(Cl)cn2)s1 + CC(Nc1ccc2c(c1)OCCn1cc(N3C(=O)OCC3C(F)F)nc1-2)C(N)=O
- IC50 (second compound 0.00316 µM): > 10 µM
- IC50 (second compound 0.01 µM): > 10 µM
- IC50 (second compound 0.0316 µM): > 10 µM
- IC50 (second compound 0.1 µM): > 10 µM
- IC50 (second compound 0.316 µM): > 10 µM
- IC50 (second compound 1 µM): > 10 µM
- viability, T/C [1]: 91.6%
- viability, T/C [2]: 102%
- viability, T/C [13]: 93.7%
- viability, T/C [14]: 102%
- viability, T/C [15]: 104%
- viability, T/C [16]: 108%
- viability, T/C [3]: 104%
- viability, T/C [4]: 105%
- viability, T/C [17]: 105%
- viability, T/C [18]: 107%
- viability, T/C [19]: 93.3%
- viability, T/C [20]: 81%
- viability, T/C [5]: 104%
- viability, T/C [6]: 92.2%
- viability, T/C [21]: 102%
- viability, T/C [22]: 97.3%
- viability, T/C [23]: 93.3%
- viability, T/C [24]: 81.4%
- viability, T/C [7]: 98.7%
- viability, T/C [8]: 85.2%
- viability, T/C [25]: 93.2%
- viability, T/C [26]: 101%
- viability, T/C [27]: 101%
- viability, T/C [28]: 86.2%
- viability, T/C [9]: 83.3%
- viability, T/C [10]: 83.7%
- viability, T/C [29]: 94.7%
- viability, T/C [30]: 99.7%
- viability, T/C [31]: 108%
- viability, T/C [32]: 68.2%
- viability, T/C [11]: 97.3%
- viability, T/C [12]: 89.5%
- viability, T/C [33]: 89.6%
- viability, T/C [34]: 99.5%
- viability, T/C [35]: 91%
- viability, T/C [36]: 74.1%
